The values that follow are results of earlier work, collected in patent US20050163873A1, “Methods and formulations for treating glaucoma” (priority 2004, published 2005).

Structures are written as SMILES.

For series [1] the following is noted: folic acid 400 μg associated with vitamin B6 and B12.
Series [2] deals with cultured retinal ganglion cells.
The subject of series [3] is tumor necrosis factor-alpha (TNF-α) and nitric oxide (NO).
Series [4] has as its system cultured neurons.
The target in series [5] is HIV-1 enzyme integrase (Human immunodeficiency virus type 1 group M subtype B, UniProt P04585).
The test system of series [6] is DNA topoisomerase II.
Series [7] has as its system diabetic rats.
Series [8] deals with human Tenon's capsule fibroblast. To be noted: human Tenon's capsule fibroblasts.
The test system of series [9] is rabbits.
The subject of series [10] is heme oxygenase 1. The following applies: neuronal cell cultures.
Series [11] has as its system diabetic rats. This is another data set of the same source.
Series [12] deals with goldfish retinal explants. To be noted: post-crush goldfish retinal explants, in the presence of fetal calf serum.
In series [13] the test system is patients with glaucoma.
The test system of series [14] is primary cultures of cerebellar neurons.
Series [15] relates to retina. To be noted: guinea pig, in vivo.
For series [16], the system named is cultured cortical cells.
Series [17] concerns hippocampal CA1 neurons. The following applies: central infusion after forebrain ischemia, gerbil.
Series [18] relates to rabbits. This is another data set of the same source.
Series [19] relates to cultured neurons from embryonic mouse cortex and striatum.
Series [20] has as its system cultured neuronal cells and astrocytes. To be noted: pretreatment of cultured neuronal cells and astrocytes.
Series [21] has as its system inducible nitric oxide synthase (iNOS).
Series [22] concerns nitric oxide and tumor necrosis factor alpha.
The subject of series [23] is cortical cell cultures.
Series [24] relates to rats.

`Nc1nc2ncc(CNc3ccc(C(=O)N[C@@H](CCC(=O)O)C(=O)O)cc3)nc2c(=O)[nH]1` [folic acid]: the “reduction of homocysteine levels” value in series [1] was 30%.
With `C/C1=C2/[N-][C@H]([C@H](CC(N)=O)[C@@]2(C)CCC(=O)NC[C@@H](C)OP(=O)([O-])O[C@H]2[C@@H](O)[C@@H](n3cnc4cc(C)c(C)cc43)O[C@@H]2CO)[C@]2(C)N=C(/C(C)=C3N=C(/C=C4N=C1[C@@H](CCC(N)=O)C\4(C)C)[C@@H](CCC(N)=O)[C@]\3(C)CC(N)=O)[C@@H](CCC(N)=O)[C@]2(C)CC(N)=O.[CH3-].[Co+3]` [Methylcobalamin], in series [2], the glutamate-induced neurotoxicity result was “protects”.
In the case of `COc1cc(C[C@H]2C(=O)OC[C@@H]2Cc2ccc(OC)c(OC)c2)ccc1O` [Arctigenin], the “tumor necrosis factor-alpha (TNF-α) and nitric oxide (NO) production” value in series [3] is “inhibit”. The glutamate toxicity entry in series [4] is recorded as “protect”. The “HIV-1 enzyme integrase inhibition” value in [5] is “inhibit”. In addition, in series [6], the “DNA topoisomerase II inhibition” value is reported as “inhibitor”.
As for `Cc1c(C)c2c(c(C)c1O)CC[C@@](C)(CCC[C@H](C)CCC[C@H](C)CCCC(C)C)O2` [D-alpha-tocopherol], in series [7], the amount of leukostasis result is on record as “prevented the increases in leukostasis” and the retinal blood flow entry is on record as “prevented”. Besides, in series [8], the fibroblast proliferation result was “inhibit”. The “results of filtering surgery” value in [9] is on record as “improve the results”.
Consider `Oc1ccc(C=Cc2cc(O)cc(O)c2)cc1` [resveratrol, Resveratrol], for which the “heme oxygenase 1” value in series [10] was “induces”.
`O=C(O)CCCCC1CCSS1` (stereo not drawn) [alpha-lipoic acid, Alpha-lipoic acid]: the amount of leukostasis entry in [7] is reported as “normalized”.
Regarding `NCCS(=O)(=O)O` [Taurine], in [11], the ATPase activity result is recorded as “preserves” and the lipid peroxidation result was “significantly decreases”. Besides, the neuritic outgrowth result in series [12] was “increased length and density of neurites”.
`C[N+](C)(C)CCOP(=O)(O)OP(=O)([O-])OC[C@H]1O[C@@H](n2ccc(N)nc2=O)[C@H](O)[C@@H]1O` [citicoline, Citicoline]: the “visual evoked potential and pattern electroretinography (ERG) parameters” value in series [13] was “significant (P<0.01) improvement”.
Turning to `C[N+](C)(C)CC(O)CC(=O)[O-]` (stereo not shown) [Carnitine], the glutamate neurotoxicity entry in [14] is listed as “prevents”. In series [15], the “retinal injury following ischemia-reperfusion injury” value was “prevent”.
For `CC(C)=CCC[C@](C)(O[C@@H]1O[C@H](CO[C@@H]2O[C@H](CO)[C@@H](O)[C@H](O)[C@H]2O)[C@@H](O)[C@H](O)[C@H]1O)[C@H]1CC[C@]2(C)[C@@H]1[C@H](O)C[C@@H]1[C@@]3(C)CC[C@H](O[C@@H]4O[C@H](CO)[C@@H](O)[C@H](O)[C@H]4O[C@@H]4O[C@H](CO)[C@@H](O)[C@H](O)[C@H]4O)C(C)(C)[C@@H]3CC[C@]12C` [Ginsenoside Rb1, ginsenoside Rb1], in series [16], the “neuroprotective effects on cultured cortical cells” value is recorded as “significant neuroprotective effects”. Moreover, in series [17], the “protection of hippocampal CA1 neurons against lethal ischemic damage” value is reported as “protects”.
In the case of `C=CCSSC[C@H](N)C(=O)O` [S-Allylmercaptocysteine], the IOP entry in [18] was “lower IOP”.
As for `CC(=O)N[C@@H](CS)C(=O)O` [N-acetyl-L-cysteine], in [19], the “neuronal cell survival rate” value is on record as “increased”.
On to `COC1=C(OC)C(=O)C(C/C=C(\C)CC/C=C(\C)CC/C=C(\C)CC/C=C(\C)CC/C=C(\C)CC/C=C(\C)CC/C=C(\C)CC/C=C(\C)CC/C=C(\C)CCC=C(C)C)=C(C)C1=O` [coenzyme Q10], for which the “cell death due to glutamate neurotoxicity” value in [20] is “inhibited cell death”.
As for `CC(C)=CCC[C@](C)(O)[C@H]1CC[C@]2(C)[C@@H]1[C@H](O)C[C@@H]1[C@@]3(C)CC[C@H](O[C@@H]4O[C@H](CO)[C@@H](O)[C@H](O)[C@H]4O[C@@H]4O[C@H](CO)[C@@H](O)[C@H](O)[C@H]4O)C(C)(C)[C@@H]3CC[C@]12C` [Ginsenoside Rg3], the “neuroprotective effects on cultured cortical cells” value in series [16] is recorded as “significant neuroprotective effects”.
In the case of `N[C@H]1C(O)O[C@H](CO)[C@@H](O)[C@@H]1O` (stereo partly shown) [glucosamine], the “inducible nitric oxide synthase (iNOS) inhibition” value in [21] is reported as “inhibits”.
For the compound `O=c1c(O)c(-c2ccc(O)c(O)c2)oc2cc(O)cc(O)c12` [Quercetin], the “release of nitric oxide and tumor necrosis factor alpha” value in [22] is “inhibits”. Besides, the oxidative injury result in [23] was “neuroprotective”. The “progression of selenite-induced cataract” value in series [24] is reported as “slow the progression”.
